Here are results for 10 molecules from PubChem BioAssay (NCI).

Among the test systems are SW-620 colon; COLO 205 colon; SF-539 CNS; MALME-3M melanoma; A498 renal; TK-10 renal; SK-MEL-5 melanoma; HCC-2998 colon; NCI-H23 lung; SNB-75 CNS; HL-60(TB) leukemia; U251 CNS; HCT-15 colon; HOP-62 NSCLC; DU-145 prostate; HS 578T breast.
What all share (test): inhibition of tumour cell growth, NCI panel, 48 h

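Values below derive from 48-hour exposures of cells grown in 96-well plates, with endpoints linearly interpolated between the two concentrations bracketing the appropriate inhibition level. TGI is the concentration that stops growth completely.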

For the molecule `COC(=O)[C@@]12OC[C@]34C([C@@H](O)C1O)[C@@]1(C)CC(=O)C(OC(=O)CC(C)C(F)(F)F)=C(C)C1C[C@H]3OC(=O)[C@H](O)[C@H]42` (some centres undefined), the TGI in the assay on SW-620 colon was greater than 62.5 µM; with COLO 205 colon it was 30 µM; in the assay with SF-539 CNS, 10.9 µM; in the assay on MALME-3M melanoma, 3.69 µM; in the assay with A498 renal it was 0.625 µM; in the assay with TK-10 renal, greater than 62.5 µM. In addition, the TGI in the assay on SK-MEL-5 melanoma was 22.2 µM; in the assay on HCC-2998 colon, 11 µM; in the assay with NCI-H23 lung it was 8.69 µM; in the assay with SNB-75 CNS it was 31.4 µM; with HL-60(TB) leukemia it was 1.98 µM; with U251 CNS it was greater than 62.5 µM. Further, the TGI in the assay with HCT-15 colon and in the assay with HOP-62 NSCLC was greater than 62.5 µM throughout.
Consider `C1CSCCSCCCS[C@@H]2CCCCC2SC1` (some centres undefined), for which the TGI with SW-620 colon was 53.5 µM; with COLO 205 colon, greater than 100 µM; with SF-539 CNS, greater than 100 µM; in the assay with MALME-3M melanoma, greater than 100 µM; in the assay on A498 renal, greater than 100 µM; in the assay on TK-10 renal, greater than 100 µM. For the same molecule, the TGI in the assay on SK-MEL-5 melanoma, in the assay with HCC-2998 colon, in the assay with NCI-H23 lung, with SNB-75 CNS, with HL-60(TB) leukemia and with U251 CNS was greater than 100 µM throughout. Besides, the TGI with HCT-15 colon is 28.8 µM; in the assay on HOP-62 NSCLC, greater than 100 µM.
`COC(=O)c1cc(S(=O)(=O)NC2=NCC(C)NN2)c(S)cc1Cl` (centres undefined): the TGI with SW-620 colon is greater than 100 µM; with COLO 205 colon, greater than 100 µM; in the assay with SF-539 CNS, greater than 100 µM; in the assay on MALME-3M melanoma, 97.5 µM; in the assay with A498 renal, 72.8 µM; in the assay with TK-10 renal, greater than 100 µM. The TGI with DU-145 prostate was greater than 100 µM; in the assay with SK-MEL-5 melanoma it was 82.3 µM; in the assay with HCC-2998 colon, greater than 100 µM; with NCI-H23 lung, greater than 100 µM; in the assay on SNB-75 CNS, 75.3 µM; in the assay on HL-60(TB) leukemia it was greater than 100 µM. Besides, the TGI in the assay on U251 CNS, with HCT-15 colon and in the assay on HOP-62 NSCLC was greater than 100 µM in each case.
Turning to `CCN1/C(=C/C#C/C(C)=C\c2sc3ccc(Cl)cc3[n+]2CC)Sc2ccc(Cl)cc21`, the TGI is 28.8 µM in the assay on HS 578T breast; 3.21 µM in the assay with COLO 205 colon; 16.1 µM with SF-539 CNS; 6.84 µM in the assay on MALME-3M melanoma; greater than 100 µM in the assay with TK-10 renal; 15.5 µM with DU-145 prostate. Besides, the TGI in the assay with SK-MEL-5 melanoma was 5.26 µM; in the assay on HCC-2998 colon, 17.6 µM; in the assay on SNB-75 CNS, 9.98 µM; in the assay on U251 CNS it was 23.2 µM; in the assay on HCT-15 colon, greater than 100 µM; in the assay with HOP-62 NSCLC, 29 µM.
On to `O=C(CCc1cc(O)cc(O)c1)NCCc1cc(O)cc(OCc2ccccc2)c1`, for which the TGI with HS 578T breast, with SW-620 colon, in the assay on COLO 205 colon, in the assay with SF-539 CNS, in the assay with A498 renal and in the assay on TK-10 renal was greater than 100 µM throughout. Also, the TGI in the assay with DU-145 prostate is greater than 100 µM; in the assay on SK-MEL-5 melanoma, 37.1 µM; with HCC-2998 colon, 39.1 µM; with NCI-H23 lung it was greater than 100 µM; in the assay on SNB-75 CNS, 76.2 µM; with U251 CNS, greater than 100 µM. The TGI with HCT-15 colon and in the assay with HOP-62 NSCLC was greater than 100 µM each time.
For the molecule `CC1(C)O[C@@H]2[C@@H](COC(C)(C)O[C@H]2C2SCCCS2)O1`, the TGI in the assay on SW-620 colon, with COLO 205 colon, in the assay on SF-539 CNS, in the assay with MALME-3M melanoma, in the assay with A498 renal and in the assay with DU-145 prostate was greater than 100 µM each time. For the same molecule, the TGI in the assay with SK-MEL-5 melanoma, in the assay with HCC-2998 colon, in the assay with NCI-H23 lung, in the assay with U251 CNS, in the assay on HCT-15 colon and in the assay with HOP-62 NSCLC was greater than 100 µM in each case.
Regarding `Cc1cc2nc3c(C#N)c(-c4ccccc4)/c(=C\Nc4ccc(F)cc4)c(=O)n3c2cc1C`, the TGI in the assay on SW-620 colon, with COLO 205 colon, in the assay with SF-539 CNS, in the assay on MALME-3M melanoma, with A498 renal and in the assay on TK-10 renal was greater than 100 µM in each case. Further, the TGI in the assay with SK-MEL-5 melanoma, in the assay on HCC-2998 colon, with NCI-H23 lung, with SNB-75 CNS, in the assay on U251 CNS and in the assay with HCT-15 colon was greater than 100 µM in each case. Besides, the TGI with HOP-62 NSCLC is greater than 100 µM.
For the molecule `COc1cc(C2c3cc4c(cc3OC(NN)C2C)OCO4)cc(OC)c1O` (centres undefined), the TGI with SW-620 colon was greater than 100 µM; in the assay on COLO 205 colon, 40.4 µM; in the assay with SF-539 CNS it was 45.4 µM; in the assay on MALME-3M melanoma it was 40.1 µM; in the assay on TK-10 renal, 90.6 µM; in the assay with DU-145 prostate it was greater than 100 µM. Also, the TGI with SK-MEL-5 melanoma is 12.7 µM; in the assay with HCC-2998 colon, 29.6 µM; in the assay with NCI-H23 lung, greater than 100 µM; with SNB-75 CNS it was greater than 100 µM; with HL-60(TB) leukemia it was 5.32 µM; in the assay on U251 CNS, 33.5 µM. Also, the TGI with HCT-15 colon turned out to be 34.2 µM.
With `O=C1c2ccccc2N2OC3(N4CCOCC4)CCCC3C12c1ccccc1` (centres undefined), the TGI in the assay on SW-620 colon, in the assay on COLO 205 colon, in the assay with SF-539 CNS, with MALME-3M melanoma, with A498 renal and in the assay with SK-MEL-5 melanoma was greater than 100 µM throughout. Besides, the TGI with HCC-2998 colon, in the assay on NCI-H23 lung, with SNB-75 CNS, with HL-60(TB) leukemia, in the assay on U251 CNS and in the assay on HCT-15 colon was greater than 100 µM in each case. This molecule also had a TGI with HOP-62 NSCLC greater than 100 µM.
As for `CCOC(=O)C1(C/C=C\CBr)CCCC1=O` (centres undefined), the TGI is greater than 100 µM in the assay with HS 578T breast; 54.9 µM in the assay with SW-620 colon; greater than 100 µM with COLO 205 colon; 44.9 µM in the assay on SF-539 CNS; greater than 100 µM in the assay on MALME-3M melanoma; greater than 100 µM with A498 renal. Also, the TGI is 39 µM in the assay on TK-10 renal; 73.2 µM with DU-145 prostate; greater than 100 µM in the assay on SK-MEL-5 melanoma; 56.7 µM in the assay on NCI-H23 lung; greater than 100 µM with SNB-75 CNS; 48.7 µM in the assay on U251 CNS. For the same molecule, the TGI in the assay on HCT-15 colon was 66.5 µM; in the assay on HOP-62 NSCLC, 56.7 µM.
